Assay results: patent US4607034A, “Quinazoline derivatives and pharmaceutical composition thereof” (priority 1979, dated 1986)
Like-named read-outs stand apart in the source and are kept apart here.

What was measured:
[1] = system: spontaneously hypertensive rats (SHR); assay: Antihypertensive test in spontaneously hypertensive rats (mean blood pressure); format: in vivo, male); details: Rattus norvegicus
Description: (§1) Through a cannula chronically intubated into the abdominal aorta of a male SHR of 20 to 30 weeks after birth, mean blood pressure and heart rate were measured by means of an electronic recording system without anesthesia and restraint. Five rats were employed in one group of SHR. […] At 1, 3, 6 and 24 hours after administration of test samples, blood pressure and heart rate were determined.

in vivo = format: in vivo; details: mouse, in vivo; oral, mice, ten mice/group, observed one week
Description: (§2) Ten ICR-strain male mice weighing from 25 to 35 g. were used per one group, after fasting for 6 hours (water was freely taken in). Each test sample was suspended in a 1% tragacanth solution and administered orally at a concentration adjusted so as to give a volume of 40 ml/kg. After administration, feed was given and observation was continued for one week.

ICR-strain male mice = assay: in vivo; format: in vivo; details: oral, ten mice/group, one week
Description: as §2

[2] = system: spontaneously hypertensive rats (SHR); details: rat, in vivo, po
Description: as §1

α-adrenoceptor = details: known; cited from earlier work
[3] = SHR 3 mg/kg, oral administration, 1 hr, negative = decrease, read-out: Percent decrease in mean blood pressure after administration, 1 hr
[4] = SHR 3 mg/kg, oral administration, 3 hrs, negative = decrease, read-out: Percent decrease in mean blood pressure after administration, 3 hrs
[5] = SHR 3 mg/kg, oral administration, 6 hrs, negative = decrease, read-out: Percent decrease in mean blood pressure after administration, 6 hrs
[6] = SHR 3 mg/kg, oral administration, 24 hrs, negative = decrease, read-out: Percent decrease in mean blood pressure after administration, 24 hrs

Structure (SMILES) | change in vivo at 3 mg/kg [1, 3] [%] | change in vivo at 3 mg/kg [1, 4] [%] | change in vivo at 3 mg/kg [1, 5] [%] | change in vivo at 3 mg/kg [1, 6] [%] | LD50 at 168 h (in vivo) [mg/kg] | Number of dead mouse (ICR-strain male mice; 2,500 mg/kg) | Number of dead mouse (ICR-strain male mice; 5,000 mg/kg) | Number of dead mouse (ICR-strain male mice; 1,250 mg/kg) | change in vivo at 3 mg/kg ([1]; po, 24 h, read-out: Percent decrease in mean blood pressure after administration, 24 hrs) [%] | change in heart rate [2] | mechanism of antihypertensive activity (α-adrenoceptor)
COc1cc2nc(N3CCN(C(=O)NC4CCCC4)CC3)nc(N)c2cc1OC [Compound 3, 2-(4-cyclopentylcarbamoyl-piperazin-1-yl)-4-amino-6,7-dimethoxyquinazoline] | -27.1 | -27 | -27 | -0.3 | > 5000 | 0 | 0 |  |  |  | 
COc1cc2nc(N3CCN(C(=O)NC4CCCCC4)CC3)nc(N)c2cc1OC [Compound 4, 2-(4-cyclohexylcarbamoyl-piperazin-1-yl)-4-amino-6,7-dimethoxyquinazoline] | -26.8 | -26.2 | -25.1 | -4.9 | > 5000 | 0 | 0 |  |  |  | 
COc1cc2nc(N3CCN(C(=O)NC4CCCCCC4)CC3)nc(N)c2cc1OC [Compound 5, 2-(4-cycloheptylcarbamoyl-piperazin-1-yl)-4-amino-6,7-dimethoxyquinazoline] | -18.4 | -24.7 | -19.2 | -3.7 |  |  |  |  |  |  | 
COc1cc2nc(N3CCN(C(=O)Nc4ccco4)CC3)nc(N)c2cc1OC [Compound 6, 2-[4-(furan-2-yl)carbamoyl-piperazin-1-yl]-4-amino-6,7-dimethoxyquinazoline] | -11.9 | -14.5 | -11.4 | 1 |  |  |  |  |  |  | 
COc1cc2nc(N3CCN(C(=S)NC4CCCCC4)CC3)nc(N)c2cc1OC [Compound 9, 2-(4-cyclohexylthiocarbamoyl-piperazin-1-yl)-4-amino-6,7-dimethoxyquinazoline] | -19.3 | -22.2 | -20.5 | -1.3 |  |  |  |  |  |  | 
COc1cc2nc(N3CCN(C(=O)Nc4ccccc4)CC3)nc(N)c2cc1OC [Compound 12, 2-(4-phenylcarbamoyl-piperazin-1-yl)-4-amino-6,7-dimethoxyquinazoline] | -13.3 | -19.7 | -17 | 3.7 | > 5000 | 0 | 0 |  |  |  | 
COc1cc2nc(N3CCN(C(=O)Nc4ccccc4C)CC3)nc(N)c2cc1OC [Compound 13, 2-[4-(2-methylphenyl)carbamoyl-piperazin-1-yl]-4-amino-6,7-dimethoxyquinazoline] | -20.2 | -17.9 | -21.4 | 1.2 | 2500 | 5 | 10 |  |  |  | 
COc1cc2nc(N3CCN(C(=O)Nc4ccc(C)cc4)CC3)nc(N)c2cc1OC [Compound 15, 2-[4-(4-methylphenyl)carbamoyl-piperazin-1-yl]-4-amino-6,7-dimethoxyquinazoline] | -17.1 | -18.5 | -21.8 | 1.2 |  |  |  |  |  |  | 
COc1cccc(NC(=O)N2CCN(c3nc(N)c4cc(OC)c(OC)cc4n3)CC2)c1 [Compound 18, 2-[4-(3-methoxyphenyl)carbamoyl-piperazin-1-yl]-4-amino-6,7-dimethoxyquinazoline] | -5.9 | -17.2 | -15.9 | 4.6 |  |  |  |  |  |  | 
CCOc1ccc(NC(=O)N2CCN(c3nc(N)c4cc(OC)c(OC)cc4n3)CC2)cc1 [Compound 21, 2-[4-(4-ethoxyphenyl)carbamoyl-piperazin-1-yl]-4-amino-6,7-dimethoxyquinazoline] | -22.4 | -24.5 | -27.7 | -6.4 | > 5000 | 0 | 0 |  |  |  | 
COc1cc2nc(N3CCN(C(=O)Nc4ccccc4F)CC3)nc(N)c2cc1OC [Compound 25, 2-[4-(2-fluorophenyl)carbamoyl-piperazin-1-yl]-4-amino-6,7-dimethoxyquinazoline] | -30.3 | -22 | -23.8 | -7.3 | 1870 | 7 | 10 | 3 |  |  | 
COc1cc2nc(N3CCN(C(=O)Nc4cccc(F)c4)CC3)nc(N)c2cc1OC [Compound 26, 2-[4-(3-fluorophenyl)carbamoyl-piperazin-1-yl]-4-amino-6,7-dimethoxyquinazoline] | -21.5 | -21.7 | -24.3 | 0 |  |  |  |  |  |  | 
COc1cc2nc(N3CCN(C(=O)Nc4cccc(Cl)c4)CC3)nc(N)c2cc1OC [Compound 29, 2-[4-(3-chlorophenyl)carbamoyl-piperazin-1-yl]-4-amino-6,7-dimethoxyquinazoline] | -15.1 | -18.5 | -19.4 | -4.9 |  |  |  |  |  |  | 
COc1cc2nc(N3CCN(C(=O)Nc4ccc(Cl)cc4C)CC3)nc(N)c2cc1OC [Compound 34, 2-[4-(2-methyl-4-chlorophenyl)carbamoyl-piperazin-1-yl]-4-amino-6,7-dimethoxyquinazoline] | -12.1 | -19 | -18.2 | -1.2 |  |  |  |  |  |  | 
COc1cc2nc(N3CCN(/C(S)=N/c4ccccc4)CC3)nc(N)c2cc1OC [Compound 35, 2-(4-phenylthiocarbamoyl-piperazin-1-yl)-4-amino-6,7-dimethoxyquinazoline] | -28 | -20.9 | -24.7 | 0.6 | > 5000 | 0 | 0 |  |  |  | 
COc1cc2nc(N3CCCN(C(=O)Nc4ccccc4)CC3)nc(N)c2cc1OC [Compound 37, 2-(4-phenylcarbamoyl-homopiperazin-1-yl)-4-amino-6,7-dimethoxyquinazoline] | -11.7 | -12.8 | -5 | 0 |  |  |  |  |  |  | 
COc1cc2nc(N3CCN(C(=O)c4ccco4)CC3)nc(N)c2cc1OC [Prazosin, 2-[4-(2-furoyl)-piperazin-1-yl]-4-amino-6,7-dimethoxyquinazoline, reference compound] | -27.9 | -17.3 | -19 |  |  |  |  |  | -1.7 | no significant change | relaxation of peripheral arterioles as a consequence of α-adrenoceptor blockade
